By melting point is commonly meant the temperature of the solid-liquid transition.

A value given as a limit tells only on which side of the number the result lay.

`COC(=O)c1ccc2cc(OC)ccc2c1O` came in with a melting point of 109 to 111 °C.
With `Cn1cnnc1SCCCCCN1CCN(c2cccc(C(F)(F)F)c2)CC1` the figure was 70 to 76 °C.
The same measure for `CCCCOc1cc(/C=C(\OCC)C(=O)O)ccc1OCCc1ccc(NC(=O)CC)cc1`: 164 °C; for `OCCc1noc(Cc2ccc(-c3ccccc3)cc2)n1`: 94 to 95 °C.
The same measure for `C#CCn1c(=O)oc2cc(Cl)c(-c3ccc(C(F)(F)F)n(C)c3=O)cc21`: 187 to 189 °C; for `COc1ccc(-c2cnc3cc4cn[nH]c4cc3n2)cc1F`: 175 to 179 °C.
`Cc1cccc(Cl)c1N(C)S(=O)(=O)c1nc2scc(C)n2n1` registered a melting point of 178 to 180 °C.
With `CN(C)C(=O)N[C@H]1CC[C@H](CCN2CCN(c3cccc4c3CCC4)CC2)CC1`, the melting point lay within 150 to 152 °C.
As to `CCC1(Cl)C(=O)c2c(cc(OCC(=O)O)c(Cl)c2Cl)C1c1ccccc1` (configuration not stated), the melting point is 190 to 192 °C.
`COc1ccc(-c2ccc(OC3SCC(OC(C)=O)C(OC(C)=O)C3OC(C)=O)cn2)cn1` (configuration not stated) displayed a melting point of 74 °C.
With `O=C(Oc1cccc(C(F)(F)F)c1)c1cc2cc(CCl)ccc2oc1=O` the figure was 162 to 163 °C.
With `CCc1cccc(C)c1S(=O)(=O)c1nn(C(=O)N(CC)CC)cc1C#N` the figure was 101 to 102 °C; with `CCCCOc1ccc(S(=O)(=O)N2CC(NC[C@H](O)COc3ccc(O)cc3)C2)cc1`, 55 to 58 °C; with `CC(C)n1c(=O)on(C(=O)n2oc(=O)n(C(C)C)c2=O)c1=O`, 150 °C.
Compound `CNc1c([N+](=O)[O-])ccc(Sc2ccccc2)c1Cl` had a melting point of 79 °C.
With `COc1ccc2c(=O)[nH]c(=O)[nH]c2c1OC` the figure was 314 to 316 °C; with `Nc1nc(N)c(-c2ccc(Cl)cc2Cl)c(CF)n1`, 210 to 211 °C; with `CN(CCOc1ccc(CCOCCc2ncno2)cc1)c1nc2ccccc2o1`, 89 to 90 °C.
The same measure for `O=c1[nH]c2cc([N+](=O)[O-])ccc2c(O)c1-c1ccccc1`: greater than 330 °C; for `COC(=O)c1ccc2cc(NC(=O)OC(C)(C)C)ccc2c1`: 178 to 180 °C; for `CC(C(N)=O)N1CCN(c2ccccn2)CC1` (configuration not stated): 130 to 132 °C.
Compound `COC(=O)CCCC#Cc1cc(Cl)ccc1NS(=O)(=O)c1ccc2sc(C)nc2c1` yielded a melting point of 68 to 72 °C.
With `c1csc(-c2ncc(COc3ccc(CCCn4ccnc4)cc3)s2)c1` the figure was 112 to 113 °C; with `CC#CCOc1ccc(S(=O)(=O)N(C)c2c(C(=O)OCC)cnc3onc(C)c23)cc1`, 85 to 90 °C; with `Nc1nc2ccc(C(F)(F)C(F)(F)F)cc2s1`, 100 °C.
With `CCOC(=O)[C@@H](CNC(=O)c1ccccc1)[C@H](O)C(F)(F)F` the figure was 108 to 110 °C; with `CCc1cc(Oc2ncc(C(F)(F)F)cc2Cl)n[nH]1`, 55 to 57 °C.
The same measure for `O=C(O)C=CC(=O)Nc1ccc(C(=O)O)cc1`: 217 to 219 °C; for `Cc1cc(C)nc(NC(=O)NS(=O)(=O)c2ccsc2C2=CC(=O)CCC2)n1`: 190 to 192 °C; for `COc1ccc(N2CCN(c3c(C)c4c(c(OC)c3C)OC(C)C4)CC2)cc1C` (configuration not stated): 94 to 96 °C.
`CC(C)(C)c1c(O)[nH]c(=O)[nH]c1=O` had a melting point of 247 to 248 °C.
The same measure for `COCCN(C)C(=O)Nc1c(C(=O)c2ccccc2)[nH]c2cc(Cl)ccc12`: 66 to 72 °C; for `CN(C)CCc1ccc(N)cc1`: 40 °C; for `N#Cc1cc(F)c(-n2ncc(Cl)c(Cl)c2=O)cc1F`: 206 °C.
With `CC(C)(COc1ccc(-n2cc(C(=O)O)cn2)cc1C#N)C(=O)O` the figure was 230 to 233 °C; with `COC(=O)CCc1sc(N)nc1-c1ccccc1`, 130 to 131 °C.
With `c1cc2c(c(N3CCNCC3)n1)CCO2` the figure was 89.5 °C.
Compound `COc1cc(C(=O)CS(C)(=O)=O)cc(OC)c1N(C)C(C)=O` yielded a melting point of 141 to 142 °C.
With `COc1cc(OC)nc(C(=O)c2nccc(-c3ccccc3)c2C(=O)OCc2ccccc2)n1` the figure was 124 to 126 °C; with `COC(=O)Cc1ccc(-c2ccc(F)cc2F)c(F)c1`, 74 to 77 °C.
With `CCCC(=O)c1cnc2c(O)cccc2c1Nc1ccccc1C` the figure was 113 to 115 °C.
`CCCCc1oc2ccccc2c1C(=O)Nc1ccc(-c2ccc(O)cc2)cc1`: the melting point lay within 181 to 183 °C.
The same measure for `CCCc1c(S(=O)(=O)CCCOc2ccc(C(C)=O)c(OCCCC(=O)OCC)c2CCC)ccc(C(C)=O)c1O`: 77 to 79 °C; for `CC(=NOCCOS(C)(=O)=O)c1ccc(-c2ccc(F)cc2)cc1`: 103 to 106 °C.
As for `N#CC1(c2ccccc2)CCN(C(=O)CC(c2ccccc2)(c2ccccc2)c2ccccc2)CC1`, the melting point was 188 to 190 °C.
`O=c1cc(-c2ccoc2)c2ccc(Sc3cc(F)cc(-c4cccnc4)c3)cc2o1` came in with a melting point of 169 to 170 °C.
Regarding `COc1ccc(OCCCCCCI)cc1`, the melting point was in the range of 64 to 66 °C.
The same measure for `Cc1cc(C2OC(C)(C)N=C2c2ccccc2)cc(C)c1N(C)C` (configuration not stated): 91 to 92 °C.
With `Nc1ccc(Oc2ccc(C(c3ccc(Oc4ccc(N)c(O)c4)cc3)(C(F)(F)F)C(F)(F)F)cc2)cc1O` the figure was 178 to 181 °C.
The compound `Cn1cc(C2=C(c3c4n(c5ccccc35)CC(NC(=O)OC(C)(C)C)CC4)C(=O)NC2=O)c2ccccc21` (configuration not stated) gave a melting point of 159 to 163 °C.
The compound `Clc1cc2c(cc1Cl)OCCO2` yielded a melting point of 147 to 148 °C.
With `C[C@@H](N[C@@H](CC(=O)O)Cc1cc(F)c(F)cc1F)c1ccccc1` the figure was 144 °C; with `[N-]=[N+]=NCC(=O)Nc1ccccc1`, 83 °C; with `COc1ccc(-c2ccc(C(=O)N3Cc4cccn4Cc4ccccc43)cc2)cc1`, 187 to 189 °C.
With `CCCCCCCCn1nnnc1I` the figure was 40 °C; with `Cc1nc(N2CCCC(Cc3cc(F)ccc3F)C2=O)sc1C(=O)NCc1ccccc1` (configuration not stated), 144 to 145 °C.
With `CC(C)(C)c1cc(C(c2cccc([N+](=O)[O-])c2)N2CCCCC2)cc(C(C)(C)C)c1O` (configuration not stated) the figure was 157 °C; with `OCCN1CCN(CC2CCn3c(nc4ccccc43)S2)CC1` (configuration not stated), 68 to 70 °C.
For the compound `C/C=C/C(=O)NC(=O)OC`, the melting point was in the range of 149 to 150 °C.
`O=C(CCn1ccnc1)c1c[nH]c2ccccc12` came in with a melting point of 194 to 197 °C.
With `O=C(NC[C@@H]1CCNC[C@H]1O)c1cc(Cl)cc2c1OCCCO2` the figure was 114 °C.
Regarding `CCN1c2ncc(CCc3cccnc3)cc2C(=O)N(C)c2cccnc21`, the melting point was 79 to 80 °C.
The same measure for `Cc1nc2c(n1C)C(=O)c1ccccc1C2=O`: greater than 253 °C; for `C=CC1CCC(C2CCC3c4ccc(OCC)c(F)c4OC3C2)CC1` (configuration not stated): 132 °C.
`Cc1cc(C)cc(Sc2[nH]c(C)nc2CO)c1`: the melting point is 199 to 201 °C.
As for `Cn1ncc(Cl)c(N)c1=O`, the melting point was 106 to 107 °C.
With `O=C(O)Cc1ccc2c3c(cccc13)C(c1ccccc1)C2` (configuration not stated) the figure was 200 °C; with `CC(C)(C)OC(=O)NC1Cc2ccccc2C2OC12` (configuration not stated), 118 to 119 °C; with `CC(C)CCn1c(=O)c(=NNc2ccccc2)c(=O)n(-c2ccccc2F)c2ccccc21`, 104 to 105 °C.
`O=C(C=Cc1ccccc1O)c1ccccc1` returned a melting point of 148 to 149 °C.
With `Cc1cccc(Br)c1-c1c(C)cccc1Br` the figure was 90 to 92.3 °C.
The same measure for `COC(=O)c1ccccc1COc1ccccc1Br`: 73 to 74 °C; for `CCCc1ncc(/C=C(\Cc2cccs2)C(=O)O)n1Cc1ccccc1Cl`: 200 °C; for `CCn1ncc2nc(C(=O)OCC#N)c(-c3ccccc3)nc21`: 102 to 103 °C.
Regarding `CC(Nc1c(Nc2ccc(S(N)(=O)=O)cc2)c(=O)c1=O)C(C)(C)C` (configuration not stated), the melting point is 233 to 235 °C.
With `C#CCNC1=NS(=O)(=O)N=C1NCCSCc1csc(NC(=N)N)n1` the figure was 176 to 178 °C; with `COC(=O)[C@@H]1C[C@H](OC(=O)c2cccs2)C(=O)[C@H]2[C@@]1(C)CC[C@H]1C(=O)O[C@H](c3ccoc3)C[C@]21C`, 143 to 145 °C.
For `COc1cn(C)c(=O)c(OS(=O)(=O)C(F)(F)F)n1`, the melting point fell in the range of 107 to 108 °C.
For the compound `Cc1cc(-c2cc(C(F)(F)F)nc(-n3cnc(-c4ccc(S(N)(=O)=O)s4)c3)n2)ccc1C(F)(F)F`, the melting point turned out to be 260 °C.
The same measure for `Cc1nnc(-c2ccc3occ(C(=O)NCCC(N)=O)c3c2)o1`: 242 to 243 °C.
The same measure for `NS(=O)(=O)c1ccc(-c2cccn2-c2ccc(Cl)cc2Cl)cc1`: 147 to 149 °C; for `Nc1nc2ccccc2c2c1ncn2CCOCc1ccncc1`: 159 to 161 °C.
Take `C=CCN(c1ccccc1)c1cc2c(cc1N(CC=C)c1ccccc1)C(=O)NC2=O`: the melting point lay within 122 to 127 °C.
The same measure for `CCCCC(=CC(N)C(=O)O)CP(=O)(O)O` (configuration not stated): 186 to 187 °C; for `CCN(CC)C(=O)Oc1cc(-c2cccc(Cl)c2)nc2ccccc12`: 83 °C.
The same measure for `Cc1cc2cnnc(Cl)c2n1CC(C)C`: 96 to 99 °C; for `CC(C)(C)c1cccc(CNC(c2ccccc2)C(NCc2cccc(C(C)(C)C)c2O)c2ccccc2)c1O` (configuration not stated): 143 to 144 °C; for `COC1=C(OC)C(=O)C(CCCCCCCCCCCOC(C)=O)=C(C)C1=O`: 41 °C.
With `CC(=O)NCCC1CCc2ccc3c(c21)CCO3` (configuration not stated) the figure was 78 to 79 °C.
`CC#CC(C)(C)NC(=O)C(Br)CC` (configuration not stated): the melting point is 79 to 81 °C.
With `O=C1c2ccccc2C(=O)N1OCC/C=C/c1cccs1` the figure was 69 to 71 °C; with `COc1ccc(Nc2nccc(-c3ccc(N4CCNCC4)nc3)n2)cn1`, 160 to 165 °C.

Values taken from a melting point compilation (Tetko et al.; mined from patent text by program, amines drawn as free bases though some values may be those of a salt).
